# In patent publication US9056916B2, “Method and assay kit for detection of toxicity induced by pyrrolizidine alkaloids” (priority 2012, dated 2015):
# What was measured:
# Format in all cases: binding, rabbit
# [1] = test system: antiserum II; experiment: Competitive ELISA and cross-reactivity test of antiserum II; settings: antiserum II 1:30000, pure PA as competitor
# Description: In competitive ELISA assay, one hundred microliters of coating antigen, BSA-pyrrole adducts, in PBS buffer was added to wells of a 96-well microtiter plate. The plates were incubated at 4° C. overnight or room temperature for 2 h. Serial dilutions of the competitor, N-acetyl-L-lysine-pyrrole, were prepared in PBST buffer. The resulting solution was mixed (1:1 v/v) with diluted antiserum in 5% nonfat milk dissolved in PBST buffer. The mixture was incubated at 4° C. overnight. The following day, the same procedure as in the titer analysis was followed. The absorbance at dual wavelength (450-650 nm) was read.
# [2] = test system: purified N-antibody; experiment: Competitive Western blot of purified N-antibody; settings: competitor 0.1 mM or 1 mM, concentration-dependent
# Description: (§1) In Western and competitive Western blot assay, coating antigen was loaded and resolved by 7.5% SDS-PAGE and then transferred to nitrocellulose membranes. Blots were then blocked with 5% nonfat milk in PBST buffer for 1 h at room temperature. Blotted membranes were incubated with 1/4000 dilution of purified N-antibody in PBST buffer with 5% nonfat milk in the absence or 0.1 mM or 1 mM of pyrrole-(NHMe)2 at 4° C. overnight. The following day, after washing three times with PBST buffer, membranes were incubated with anti-rabbit IgG-horseradish peroxidase solution (1/5000 in PBST buffer with 5% nonfat milk) for 1 h at room temperature. After washing, protein bands were detected by chemiluminescence with an ECL detection kit. […] Moreover, the immune response was inhibited by pyrrole-containing competitor, pyrrole-(NHMe)2, in competitive Western blot assays, and the inhibitory effect was concentration-dependent manner (FIG. 9).
# [3] = test system: purified S-antibody; experiment: Competitive Western blot of purified S-antibody; settings: competitor 0.1 mM or 1 mM, concentration-dependent
# Description: as §1, with “S-antibody” for “N-antibody”, “pyrrole-(SMe)2” for “pyrrole-(NHMe)2”, “pyrrole-(SMe)2,” for “pyrrole-(NHMe)2,”, “(See FIG. 11).” for “(FIG. 9).”
Compound,cross-reactivity with antiserum II [1],also measured
C[C@H]1C(=O)O[C@@H]2CCN3CC=C(COC(=O)[C@](C)(O)[C@]1(C)O)[C@H]23 [monocrotaline],no cross-reactivity,–
pyrrole-(NHMe)2,–,inhibition of immune response of N-antibody with BSA-pyrrole adducts [2]: inhibited
pyrrole-(SMe)2,–,inhibition of immune response of S-antibody with BSA-pyrrole adducts [3]: inhibited
retrorsine,no cross-reactivity,–
